What is called MIC is the smallest concentration in the dilution series that meets the test's criterion for growth inhibition. A low value points to inhibition by little substance.

Values after ≈ are worked out from the molar mass of the structure shown. Active and inactive are the calls of the source. Where a SMILES comes first, the peptide text is derived from it. The star is where a group is joined. Myristoyl = CCCCCCCCCCCCCC(=O)*; Decanoyl = CCCCCCCCCC(=O)*

The results in this text go back to ChEMBL document CHEMBL3286360, “Tuning the antimicrobial pharmacophore to enable discovery of short lipopeptides with multiple modes of action” (Eur J Med Chem, 2014).

In data set [1] the test system is Staphylococcus aureus. Description: Antimicrobial activity against Staphylococcus aureus ATCC 12600 after 17 to 20 hrs by serial dilution method. The class given is functional.
For data set [2], the system named is Escherichia coli. Description: Antimicrobial activity against Escherichia coli ATCC 25922 after 17 to 20 hrs by serial dilution method. The class given is functional.
In another data set the test system is Candida albicans. The experiment in a line: Antimicrobial activity against Candida albicans ATCC 14053 after 17 to 20 hrs by serial dilution method. The class given is functional.
Data set [3] is described as follows: Cytotoxicity in human erythrocytes assessed as hemolysis at 250 ug/ml after 1 hr relative to control. The format is cell-based, Erythrocyte. The following applies: read-out: Activity.
The test system of data set [4] is Staphylococcus aureus. The experiment in a line: Antimicrobial activity against Staphylococcus aureus ATCC 12600 assessed as disruption of membrane integrity measured as PI dye influx at 50 ug/ml after 20 mins by fluorescence microscopy. The format is functional, organism-based.
Data set [5] deals with Escherichia coli. The experiment in a line: Antimicrobial activity against Escherichia coli ATCC 25922 assessed as disruption of membrane integrity measured as PI dye influx at 50 ug/ml after 20 mins by fluorescence microscopy. The class given is functional, organism-based.
In a further data set the test system is Priestia megaterium. Description: Binding affinity to Bacillus megaterium pHis1525 DNA at 25 to 50 ug/ml after 30 mins by agarose gel electrophoresis.
Data set [6] in a line: Cytotoxicity against human TZM-b1 cells assessed as survival at 40 ug/ml after 2 hrs by flow cytometry. The format is cell-based. The following applies: read-out: Survival. (In general: Flow cytometry measures light scatter and fluorescence of single cells or particles in a stream.)
The subject of data set [7] is Staphylococcus aureus. The experiment in a line: Antimicrobial activity against Staphylococcus aureus ATCC 12600 assessed as cell death at 40 ug/ml after 1 hr by flow cytometry. The format is functional.
Data set [8] in a line: Cytotoxicity against human TZM-b1 cells assessed as cell death at 40 ug/ml after 1 hr by flow cytometry (reference value: 0 to 0.20 %). The following applies: tzm-b1, 1 h. The format is cell-based.
Data set [9] is described as follows: Cytotoxicity against human TZM-b1 cells assessed as cell death at 40 ug/ml after 2 hrs by flow cytometry (reference value: 0 to 0.20 %). Conditions: tzm-b1, 2 h. The class given is cell-based.
The subject of data set [10] is Staphylococcus aureus. Description: Antimicrobial activity against Staphylococcus aureus ATCC 12600 assessed as disruption of membrane integrity measured as PI dye influx at 250 ug/ml after 20 mins by fluorescence microscopy. The format is functional, organism-based.
Data set [11] deals with Escherichia coli. The experiment in a line: Antimicrobial activity against Escherichia coli ATCC 25922 assessed as disruption of membrane integrity measured as PI dye influx at 250 ug/ml after 20 mins by fluorescence microscopy. The format is functional.
The nature of data set [12]: Cytotoxicity against human TZM-b1 cells assessed as cell death at 125 ug/ml after 48 hrs by MTT assay. The class given is cell-based. The following applies: tzm-b1, 48 h.
Data set [13] can be described thus: Cytotoxicity against human TZM-b1 cells assessed as cell death after 48 hrs by MTT assay. The following applies: tzm-b1, 48 h. The class given is cell-based.
Data set [14] in a line: Cytotoxicity in human erythrocytes assessed as hemolysis at 125 ug/ml after 1 hr relative to control. The following applies: read-out: Activity. The format is cell-based, Erythrocyte.
Data set [15] can be described thus: Cytotoxicity against human TZM-b1 cells assessed as cell death at 500 ug/ml after 48 hrs by MTT assay. The format is cell-based. Conditions: tzm-b1, 48 h.

Regarding `CCCCCCCCCC(=O)N[C@@H](CCCCN)C(=O)N[C@@H](Cc1c[nH]c2ccccc12)C(=O)N[C@@H](CCCCN)C(N)=O` (Decanoyl-Lys-Trp-Lys-NH2), the MIC against Staphylococcus aureus [1] is 31.2 µg/mL (≈ 50.8 µM); against Escherichia coli [2], greater than 31.2 µg/mL; in the data set on Candida albicans, greater than 62.5 µg/mL. In data set [3], the hemolysis at 1 h, 250 ug/ml was less than 10%.

`CCCCCCCCCC(=O)N[C@@H](CCCNC(=N)N)C(=O)N[C@H](C(=O)N[C@@H](CCCCN)C(=O)N[C@@H](Cc1c[nH]c2ccccc12)C(=O)N[C@@H](CCCCN)C(N)=O)[C@@H](C)CC` (Decanoyl-RIKWK-NH2): the outcome with Staphylococcus aureus [4], in the data set with Escherichia coli [5], with Staphylococcus aureus [10] and in the data set on Escherichia coli [11] was Active. For the same molecule, in the data set on Priestia megaterium, the result was inactive. In addition, the viability at 2 h, 40 ug/ml in data set [6] was greater than 99%. Also, the figures for the Activity (in the data set on Staphylococcus aureus [7]; in [8]; in data set [9]) were greater than 95%, 0.074% and 0.083%, respectively. The MIC is 7.8 µg/mL (≈ 8.83 µM) in the data set with Staphylococcus aureus [1], 15.6 µg/mL (≈ 17.7 µM) in the data set with Escherichia coli [2] and greater than 62.5 µg/mL in the data set with Candida albicans. Further, the hemolysis at 1 h, 250 ug/ml in [3] was less than 10%.

Consider `CCCCCCCCCC(=O)N[C@@H](CCCNC(=N)N)C(=O)N[C@@H](CCCCN)C(=O)N[C@@H](Cc1c[nH]c2ccccc12)C(=O)N[C@@H](Cc1c[nH]c2ccccc12)C(=O)N[C@@H](CCCCN)C(N)=O` (Decanoyl-RKWWK-NH2), for which the result in the data set on Staphylococcus aureus [4], in the data set with Escherichia coli [5], in the data set on Priestia megaterium and with Staphylococcus aureus [10] was Active. Moreover, the Activity entry is “Toxic” in data set [12]; “Toxic” in [13]; greater than 95% in the data set with Staphylococcus aureus [7]; 0.072% in data set [8]; 0.128% in data set [9]. Besides, in data set [6], the viability at 2 h, 40 ug/ml is greater than 99%. In addition, the MIC was 3.9 µg/mL (≈ 4.08 µM) with Staphylococcus aureus [1], 3.9 µg/mL (≈ 4.08 µM) with Escherichia coli [2] and 15.6 µg/mL (≈ 16.3 µM) in the data set on Candida albicans. Besides, the hemolysis at 1 h, 125 ug/ml in data set [14] was less than 10%. Moreover, the CC50 in the data set with Escherichia coli [11] (ATCC 25922, 20 min) came to 115 µg/mL (≈ 120 µM).

For the molecule `CCCCCCCCCCCCCC(=O)N[C@@H](CCCCN)C(=O)N[C@@H](Cc1c[nH]c2ccccc12)C(=O)N[C@@H](CCCCN)C(=O)N[C@@H](Cc1c[nH]c2ccccc12)C(N)=O` (Myristoyl-KWKW-NH2), the MIC against Staphylococcus aureus [1] was 3.9 µg/mL (≈ 4.56 µM); in the data set with Escherichia coli [2], 7.8 µg/mL (≈ 9.11 µM); against Candida albicans, greater than 62.5 µg/mL. In addition, in data set [14], the hemolysis at 1 h, 125 ug/ml amounted to 17%.

On to `CCCCCCCCCCCCCC(=O)N[C@@H](CCCCN)C(=O)N[C@@H](Cc1c[nH]c2ccccc12)C(=O)N[C@@H](Cc1c[nH]c2ccccc12)C(=O)N[C@@H](CCCCN)C(N)=O` (Myristoyl-KWWK-NH2), for which the minimum inhibitory concentration (MIC) in the data set with Staphylococcus aureus [1] was determined as 3.9 µg/mL (≈ 4.56 µM); against Escherichia coli [2], 7.8 µg/mL (≈ 9.11 µM); in the data set with Candida albicans, 15.6 µg/mL (≈ 18.2 µM). Further, the hemolysis at 1 h, 125 ug/ml in [14] turned out to be 56%.

Turning to `CCCCCCCCCCCCCC(=O)N[C@@H](CCCCN)C(=O)N[C@@H](Cc1c[nH]c2ccccc12)C(=O)N[C@@H](CCCCN)C(N)=O` (Myristoyl-Lys-Trp-Lys-NH2), the MIC was 7.8 µg/mL (≈ 11.6 µM) against Staphylococcus aureus [1], 7.8 µg/mL (≈ 11.6 µM) in the data set on Escherichia coli [2] and greater than 62.5 µg/mL in the data set on Candida albicans. Besides, the hemolysis at 1 h, 125 ug/ml in data set [14] is 11%. The hemolysis at 1 h, 250 ug/ml in data set [3] stood at 19%.

Regarding `CCCCCCCCCCCCCC(=O)N[C@@H](CCCNC(=N)N)C(=O)N[C@H](C(=O)N[C@@H](CCCCN)C(=O)N[C@@H](Cc1c[nH]c2ccccc12)C(=O)N[C@@H](CCCCN)C(N)=O)[C@@H](C)CC` (Myristoyl-RIKWK-NH2), the values for the MIC against Staphylococcus aureus [1], against Escherichia coli [2] and against Candida albicans were 15.6 µg/mL (≈ 16.6 µM), 15.6 µg/mL (≈ 16.6 µM) and greater than 62.5 µg/mL, respectively. Further, the hemolysis at 1 h, 250 ug/ml in data set [3] amounted to 20%.

Take H-RKWWK-NH2: the Activity entry in [15] is on record as “Non-toxic”. The MIC was 62.5 µg/mL in the data set with Staphylococcus aureus [1] and greater than 62.5 µg/mL in the data set on Escherichia coli [2].
